Results reported in US6479435B1, “Diaryl ethers and processes for their preparation and herbicidal and desiccant compositions containing them” (ISK Americas Incorporated, priority 1997, dated 2002).

What was measured:
Assay type in all cases: in vivo
[1] = test system: Johnsongrass (Sorghum halepense, SORHA); experiment: Pre-emerge greenhouse herbicide test, phytotoxicity rating; conditions: 14 days after application, rating scale 0-100
From the text: (§1) A standard greenhouse herbicide activity screening system was used to evaluate the herbicidal efficacy and crop safety of these test compounds. Six broadleaf weed species including redroot pigweed (Amaranthus retroflexus, AMARE), velvetleaf (Abutilon theophrasti, ABUTH), sicklepod (Cassia obtusifolia, CASOB), ivyleaf morningglory (Ipomoea hederacea, IPOHE), lambsquarters (Chenopodium album, CHEAL) and common ragweed (Ambrosia artemisiifolia L., AMBEL) were used as test species. Four grass weed species including green foxtail (Setaria viridis, SETVI), barnyardgrass (Echinochloa crusgalli, ECHCG), Johnsongrass (Sorghum halepense, SORHA), and large crabgrass (Digitaria sanguinalis, DIGSA) were also used. In addition, three crop species, field corn (Zea mays L., var. Dekalb 535, CORN), soybean (Glycine max L., var. Pella 86, SOY), and upland rice (Oryza sp., var.Tebonnet, RICE) were included.
(§2) All plants were grown in 10 cm square plastic pots which were filled with a sandy loam soil mix. For preemerge tests, seeds were planted one day prior to application of the test compounds. Immediately after application, test units of the pre-emerge applications were watered at the soil surface to incorporate the test materials. Subsequently, these test units were bottom-watered.
(§3) All test compounds were dissolved in acetone and applied to the test units in a volume of 187 l/ha. Test materials were applied at rates ranging from 125 g ai/ha to 1000 g ai/ha using a track sprayer equipped with a TJ8001E even flow flat fan spray nozzle. Plants were arranged on a shelf so that the top of the canopy (post-emerge) or top of the soil surface (pre-emerge) was 40-45 cm below the nozzle. Pressurized air was used to force the test solution through the nozzle as it was mechanically advanced (via electrically driven chain drive) over the top of all test plants/pots. This application simulates a typical commercial field herbicide application.
(§4) At 14 days after application of the test materials, phytotoxicity ratings were recorded. A rating scale of 0-100 was used as previously described in Research Methods in Weed Science, 2nd edition, B. Truelove, Ed., Southern Weed Science Society, Auburn University, Auburn, Ala., 1977. Briefly, “0” corresponds to no damage and “100” corresponds to complete death of all plants in the test unit. This scale was used both to determine efficacy against weed species and damage to crop species. Herbicide activity data for various compounds of this invention, which are shown by compound number in Tables 1-9, are shown in Tables 13 and 14.

[2] = test system: barnyardgrass (Echinochloa crusgalli, ECHCG); experiment: as above; conditions: 14 days after application, rating scale 0-100
From the text: as §1, §2, §3, §4

[3] = test system: green foxtail (Setaria viridis, SETVI); experiment: as above; conditions: 14 days after application, rating scale 0-100
From the text: as §1, §2, §3, §4

[4] = test system: ivyleaf morningglory (Ipomoea hederacea, IPOHE); experiment: as above; conditions: 14 days after application, rating scale 0-100
From the text: as §1, §2, §3, §4

[5] = test system: lambsquarters (Chenopodium album, CHEAL); experiment: as above; conditions: 14 days after application, rating scale 0-100
From the text: as §1, §2, §3, §4

[6] = test system: large crabgrass (Digitaria sanguinalis, DIGSA); experiment: as above; conditions: 14 days after application, rating scale 0-100
From the text: as §1, §2, §3, §4

[7] = test system: redroot pigweed (Amaranthus retroflexus, AMARE); experiment: as above; conditions: 14 days after application, rating scale 0-100
From the text: as §1, §2, §3, §4

[8] = test system: sicklepod (Cassia obtusifolia, CASOB); experiment: as above; conditions: 14 days after application, rating scale 0-100
From the text: as §1, §2, §3, §4

[9] = test system: velvetleaf (Abutilon theophrasti, ABUTH); experiment: as above; conditions: 14 days after application, rating scale 0-100
From the text: as §1, §2, §3, §4

[10] = test system: field corn (Zea mays L., var. Dekalb 535, CORN); experiment: Pre-emerge greenhouse test, crop damage rating; conditions: 14 days after application, rating scale 0-100
From the text: as §1, §2, §3, §4

[11] = test system: upland rice (Oryza sp., var.Tebonnet, RICE); experiment: Pre-emerge greenhouse test, crop damage rating; conditions: 14 days after application, rating scale 0-100
From the text: as §1, §2, §3, §4

[12] = test system: soybean (Glycine max L., var. Pella 86, SOY); experiment: Pre-emerge greenhouse test, crop damage rating; conditions: 14 days after application, rating scale 0-100
From the text: as §1, §2, §3, §4

[13] = test system: Johnsongrass (Sorghum halepense, SORHA); experiment: Post-emerge greenhouse herbicide test, phytotoxicity rating; conditions: 14 days after application
From the text: as §1, §3
(§5) In the post-emerge test, a commercial non-ionic surfactant was also included (0.25% v/v) to enhance wetting of the leaf surfaces Qf target plants at rates ranging from 63 g ai/ha to 1000 g ai/ha. For post-emerge tests, seeds were planted 8-21 days prior to the test to allow emergence and good foliage development prior to application of the test substances. At the time of the post-emerge application, plants of all species were usually at the 2-3 leaf stage of development. Post-emerge test units were always bottom-watered.
as §4

[14] = test system: barnyardgrass (Echinochloa crusgalli, ECHCG); experiment: as above; conditions: 14 days after application
From the text: as §1, §3, §5, §4

[15] = test system: green foxtail (Setaria viridis, SETVI); experiment: as above; conditions: 14 days after application
From the text: as §1, §3, §5, §4

[16] = test system: ivyleaf morningglory (Ipomoea hederacea, IPOHE); experiment: as above; conditions: 14 days after application
From the text: as §1, §3, §5, §4

[17] = test system: lambsquarters (Chenopodium album, CHEAL); experiment: as above; conditions: 14 days after application
From the text: as §1, §3, §5, §4

[18] = test system: large crabgrass (Digitaria sanguinalis, DIGSA); experiment: as above; conditions: 14 days after application
From the text: as §1, §3, §5, §4

[19] = test system: redroot pigweed (Amaranthus retroflexus, AMARE); experiment: as above; conditions: 14 days after application
From the text: as §1, §3, §5, §4

[20] = test system: sicklepod (Cassia obtusifolia, CASOB); experiment: as above; conditions: 14 days after application
From the text: as §1, §3, §5, §4

[21] = test system: velvetleaf (Abutilon theophrasti, ABUTH); experiment: as above; conditions: 14 days after application
From the text: as §1, §3, §5, §4

[22] = test system: field corn (Zea mays L., var. Dekalb 535, CORN); experiment: Post-emerge greenhouse test, crop damage rating; conditions: 14 days after application
From the text: as §1, §3, §5, §4

[23] = test system: upland rice (Oryza sp., var.Tebonnet, RICE); experiment: Post-emerge greenhouse test, crop damage rating; conditions: 14 days after application
From the text: as §1, §3, §5, §4

[24] = test system: soybean (Glycine max L., var. Pella 86, SOY); experiment: Post-emerge greenhouse test, crop damage rating; conditions: 14 days after application
From the text: as §1, §3, §5, §4

## O=c1cc2n(c(=O)n1-c1cc(Oc3ncccn3)c(Cl)cc1F)CCC2 [Compound 5-12]
[1]; 125 g ai/ha
  phytotoxicity rating SORHA: 40
[1]; 500 g ai/ha
  phytotoxicity rating SORHA: 100
[2]; 125 g ai/ha
  phytotoxicity rating ECHCG: 20
[2]; 500 g ai/ha
  phytotoxicity rating ECHCG: 100
[3]; 125 g ai/ha
  phytotoxicity rating SETVI: 100
[3]; 500 g ai/ha
  phytotoxicity rating SETVI: 100
[4]; 125 g ai/ha
  phytotoxicity rating IPOHE: 80
[4]; 500 g ai/ha
  phytotoxicity rating IPOHE: 100
[5]; 125 g ai/ha
  phytotoxicity rating CHEAL: 100
[5]; 500 g ai/ha
  phytotoxicity rating CHEAL: 100
[6]; 125 g ai/ha
  phytotoxicity rating DIGSA: 100
[6]; 500 g ai/ha
  phytotoxicity rating DIGSA: 100
[7]; 125 g ai/ha
  phytotoxicity rating AMARE: 100
[7]; 500 g ai/ha
  phytotoxicity rating AMARE: 100
[8]; 125 g ai/ha
  phytotoxicity rating CASOB: 50
[8]; 500 g ai/ha
  phytotoxicity rating CASOB: 100
[9]; 125 g ai/ha
  phytotoxicity rating ABUTH: 100
[9]; 500 g ai/ha
  phytotoxicity rating ABUTH: 100
[10]; 125 g ai/ha
  crop damage rating CORN: 10
[10]; 500 g ai/ha
  crop damage rating CORN: 40
[11]; 125 g ai/ha
  crop damage rating RICE: 60
[11]; 500 g ai/ha
  crop damage rating RICE: 100
[12]; 125 g ai/ha
  crop damage rating SOY: 40
[12]; 500 g ai/ha
  crop damage rating SOY: 80
[13]; 63 g al/ha
  SORHA phytotoxicity rating (0-100): 0
[13]; 500 g al/ha
  SORHA phytotoxicity rating (0-100): 20
[14]; 63 g al/ha
  ECHCG phytotoxicity rating (0-100): 0
[14]; 500 g al/ha
  ECHCG phytotoxicity rating (0-100): 40
[15]; 63 g al/ha
  SETVI phytotoxicity rating (0-100): 0
[15]; 500 g al/ha
  SETVI phytotoxicity rating (0-100): 50
[16]; 63 g al/ha
  IPOHE phytotoxicity rating (0-100): 40
[16]; 500 g al/ha
  IPOHE phytotoxicity rating (0-100): 30
[17]; 63 g al/ha
  CHEAL phytotoxicity rating (0-100): 60
[17]; 500 g al/ha
  CHEAL phytotoxicity rating (0-100): 75
[18]; 63 g al/ha
  DIGSA phytotoxicity rating (0-100): 0
[18]; 500 g al/ha
  DIGSA phytotoxicity rating (0-100): 40
[19]; 63 g al/ha
  AMARE phytotoxicity rating (0-100): 80
[19]; 500 g al/ha
  AMARE phytotoxicity rating (0-100): 40
[20]; 63 g al/ha
  CASOB phytotoxicity rating (0-100): 10
[20]; 500 g al/ha
  CASOB phytotoxicity rating (0-100): 50
[21]; 63 g al/ha
  ABUTH phytotoxicity rating (0-100): 60
[21]; 500 g al/ha
  ABUTH phytotoxicity rating (0-100): 95
[22]; 63 g al/ha
  CORN crop damage rating (0-100): 0
[22]; 500 g al/ha
  CORN crop damage rating (0-100): 20
[23]; 63 g al/ha
  RICE crop damage rating (0-100): 0
[23]; 500 g al/ha
  RICE crop damage rating (0-100): 70
[24]; 63 g al/ha
  SOY crop damage rating (0-100): 50
[24]; 500 g al/ha
  SOY crop damage rating (0-100): 100

## CCN1CC(=O)N(c2cc(Oc3ncccc3C(F)(F)F)c(Cl)cc2F)C1=O [Compound 8-1, 3-[4-chloro-2-fluoro-5-(trifluoromethyl-2-pyridyloxy)phenyl]-1-ethylimidazolidine-2,4-dione]
[1]; 500 g ai/ha
  phytotoxicity rating SORHA: 60
[2]; 500 g ai/ha
  phytotoxicity rating ECHCG: 40
[3]; 500 g ai/ha
  phytotoxicity rating SETVI: 85
[4]; 500 g ai/ha
  phytotoxicity rating IPOHE: 30
[5]; 500 g ai/ha
  phytotoxicity rating CHEAL: 100
[6]; 500 g ai/ha
  phytotoxicity rating DIGSA: 100
[7]; 500 g ai/ha
  phytotoxicity rating AMARE: 100
[8]; 500 g ai/ha
  phytotoxicity rating CASOB: 70
[9]; 500 g ai/ha
  phytotoxicity rating ABUTH: 95
[10]; 500 g ai/ha
  crop damage rating CORN: 0
[11]; 500 g ai/ha
  crop damage rating RICE: 30
[12]; 500 g ai/ha
  crop damage rating SOY: 0
[13]; 500 g al/ha
  SORHA phytotoxicity rating (0-100): 0
[14]; 500 g al/ha
  ECHCG phytotoxicity rating (0-100): 0
[15]; 500 g al/ha
  SETVI phytotoxicity rating (0-100): 10
[16]; 500 g al/ha
  IPOHE phytotoxicity rating (0-100): 70
[17]; 500 g al/ha
  CHEAL phytotoxicity rating (0-100): 85
[18]; 500 g al/ha
  DIGSA phytotoxicity rating (0-100): 0
[19]; 500 g al/ha
  AMARE phytotoxicity rating (0-100): 40
[20]; 500 g al/ha
  CASOB phytotoxicity rating (0-100): 30
[21]; 500 g al/ha
  ABUTH phytotoxicity rating (0-100): 90
[22]; 500 g al/ha
  CORN crop damage rating (0-100): 0
[23]; 500 g al/ha
  RICE crop damage rating (0-100): 0
[24]; 500 g al/ha
  SOY crop damage rating (0-100): 50
